# Data reported in patent US20170119776A1, “CHIRAL 2,5-DISUBSTITUTED CYCLOPENTANECARBOXYLIC ACID DERIVATIVES AND USE THEREOF” (BAYER PHARMA AKTIENGESELLSCHAFT, priority 2014, published 2017).
# pIC50: −log10 of the molar value.
# Biological target: T1, human macrophage elastase (HME/hMMP-12) (Homo sapiens, UniProt P39900)
# T1 construct: 0.5 nM HME; purchased R&D Systems 917-MP
# Assay: In vitro HME inhibition test (standard / high-sensitivity), without BSA
# Format: biochemical
# Conditions: absence of serum albumin (BSA)
# Excerpt: The activity of the compounds according to the invention towards HME (MMP-12) is ascertained in an in vitro inhibition test. The HME-mediated amidolytic cleavage of a suitable peptide substrate leads herein to a fluorescent light increase. The signal intensity of the fluorescent light is directly proportional to the enzyme activity. The active concentration of a test compound at which half of the enzyme is inhibited (50% signal intensity of the fluorescent light) is given as IC50 value.
# In a 384 hole microtiter plate, in a test volume of in total 41 μl of the test buffer (0.1 M HEPES pH 7.4, 0.15 M NaCl, 0.03 M CaCl2, 0.004 mM ZnCl2, […], 0.005% Brij®), the enzyme (0.5 nM HME; R&D Systems, 917-MP, autocatalytic activation according to the manufacturer's instructions) and the intramolecularly quenched substrate [5 μM Mca-Pro-Leu-Gly-Leu-Glu-Glu-Ala-Dap(Dnp)-NH2; Bachem, M-2670] are incubated in the absence and presence of the test substance (as solution in DMSO) for two hours at 37° C. The fluorescent light intensity of the test batches is measured (excitation 323 nm, emission 393 nm). The IC50 values are ascertained by plotting the fluorescent light intensity against the active ingredient concentration.
# If subnanomolar IC values are produced for high potent test substances in the standard HME inhibition test described above, then a modified test is used for their more precise determination. Here, a ten-fold lower enzyme concentration is used (final concentration e.g. 0.05 nM), in order to achieve an increased sensitivity of the test. The incubation time of the test is accordingly chosen to be longer (e.g. 16 hours).
# Table 1 below gives the IC50 values from these HME inhibition tests for the working examples of the present invention and also for two structurally related comparison compounds from the prior art (as racemate or separated enantiomers)→(sometimes as average values from several independent individual determinations and rounded to two significant places). The IC50 values were determined for racemates and enantiomers from differently generated DMSO stock solutions. Whereas an automatically created DMSO stock solution from the internal substance logistics was used for racemates by means of a standard method, for enantiomers and for a more precise direct comparison of the enantiomers with one another, in each case a freshly produced, manually prepared DMSO stock solution was used.
# T1 sequence (P39900 106-470): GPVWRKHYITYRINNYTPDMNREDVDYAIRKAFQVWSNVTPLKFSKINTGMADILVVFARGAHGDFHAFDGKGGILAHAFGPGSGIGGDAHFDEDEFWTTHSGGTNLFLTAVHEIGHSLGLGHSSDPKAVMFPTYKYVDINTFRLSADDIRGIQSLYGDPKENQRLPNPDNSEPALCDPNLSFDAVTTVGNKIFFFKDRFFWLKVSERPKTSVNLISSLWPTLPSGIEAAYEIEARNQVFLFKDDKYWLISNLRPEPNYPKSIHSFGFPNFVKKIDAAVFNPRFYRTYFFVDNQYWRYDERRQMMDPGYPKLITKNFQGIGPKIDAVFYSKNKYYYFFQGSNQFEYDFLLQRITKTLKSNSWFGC
row,pIC50,Compound
1,6.80,"CCCCCOc1ccc(C(=O)CC(CCn2nnc3ccccc3c2=O)C(=O)O)cc1 (single isomer, unassigned; enantiomer 2) [Comparative Example B-3, (−)-4-Oxo-2-[2-(4-oxo-1,2,3-benzotriazin-3(4H)-yl)ethyl]-4-[4-(pentyloxy)phenyl]butanoic acid (enantiomer 2)]"
2,7.85,"O=C(O)[C@@H]1[C@@H](Cn2nnc3ccccc3c2=O)CC[C@H]1C(=O)c1ccc(OCc2ccccc2)cc1 [Example 3, (−)-(1R,2R,5S)-2-[4-(Benzyloxy)benzoyl]-5-[(4-oxo-1,2,3-benzotriazin-3(4H)-yl)methyl]cyclopentanecarboxylic acid]"
3,7.18,"O=C(O)[C@@H]1[C@@H](Cn2nnc3ccccc3c2=O)CC[C@H]1C(=O)c1ccc(-c2ccc(Cl)cc2)cc1 (single isomer, unassigned; enantiomer 1) [Comparative Example A-2, (1RS,2RS,5SR)-2-[(4′-chlorobiphenyl-4-yl)carbonyl]-5-[(4-oxo-1,2,3-benzotriazin-3(4H)-yl)methyl]cyclopentanecarboxylic acid (enantiomer 1)]"
